Data reported in patent publication US20200368247A1, “CENICRIVIROC FOR THE TREATMENT OF FIBROSIS” (Tobira Therapeutics, Inc., priority 2014, published 2020).
Where two headings read alike, the source gives them in different places.

Experiments:
CCR2 = target: T1, CCR2 (Homo sapiens, UniProt P41597); test: CCR2 receptor occupancy / MCP-1-induced CCR2 internalization in PBMCs, flow cytometry; type: cell-based
T1 construct: endogenous in cells; host or cells: monocytes within PBMCs from HIV+ and HIV- subjects
T1 sequence (P41597 1-360 isoform P41597-2): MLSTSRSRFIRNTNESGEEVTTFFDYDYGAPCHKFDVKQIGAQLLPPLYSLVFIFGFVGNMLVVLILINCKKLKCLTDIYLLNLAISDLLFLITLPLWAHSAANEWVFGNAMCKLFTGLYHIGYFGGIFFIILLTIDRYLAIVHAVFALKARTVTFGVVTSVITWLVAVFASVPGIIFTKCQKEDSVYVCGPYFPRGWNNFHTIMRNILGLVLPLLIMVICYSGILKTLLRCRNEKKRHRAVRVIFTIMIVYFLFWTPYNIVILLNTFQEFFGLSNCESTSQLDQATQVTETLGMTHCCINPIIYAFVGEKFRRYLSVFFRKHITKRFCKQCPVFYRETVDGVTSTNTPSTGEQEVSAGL
Procedure: The capacity of each drug to inhibit CCR5 or CCR2 internalization was evaluated. Cell-surface expression of CCR5 and CCR2 was assessed by flow cytometry, and fluorescence values were converted into molecules of equivalent soluble fluorescence (MESF).

[1] = Study 201 safety (adverse events, laboratory); type: in vivo
Procedure: Participants were required to be antiretroviral treatment-experienced, CCR5 antagonist-naive, with HIV-1 RNA levels of at least 5000 copies/mL and CD4+ cell counts of at least 250 cells/mm^3 was performed.
There were no deaths, SAEs, or other significant AEs, and there were no discontinuations because of an AE. Most treatment-emergent AEs were mild or moderate in severity. […] The most common (≥10%) treatment-emergent AEs in this study were nausea (18.5%), diarrhea (16.7%), headache (14.8%), and fatigue (11.0%).
There were 6 subjects with ALT and/or AST elevations in the 25 mg (2 subjects), 50 mg (2 subjects), 100 mg (1 subject), and 150 mg (1 subject) dose groups, and 1 subject with an AST elevation in the placebo group during the observation period. All elevations were Grade 1, were isolated except in 2 subjects (both in the 50-mg dose group) who had more than a single elevation, and resolved without sequelae. […] The AST elevations observed in subjects in the 100 mg and 150 mg dose groups during treatment (observed in 1 subject in each dose group), returned to normal values during continuation of treatment.

[2] = tested on: RANTES-induced Ca2+ mobilization; test: RANTES-induced Ca2+ mobilization; type: cell-based
[3] = for SAE: Suicidal ideation: through Week 48
Excerpt: Subjects with a history of HIV-2, hepatitis B and/or C, cirrhosis of the liver or any known active or chronic active liver disease were excluded from the study.
Most AEs were mild or moderate (Grade 1 or Grade 2). […] None of the Grade ≥3 AEs (preferred terms) were reported in more than 1 subject. Table 28 provides an overview of deaths, SAES, AEs, AEs by severity, AEs related to study medication, and AE leading to discontinuation.

[4] = All CVC (N = 115), EFV (N = 28)

SMILES: CCCCOCCOc1ccc(-c2ccc3c(c2)/C=C(/C(=O)Nc2ccc([S@@+]([O-])Cc4cncn4CCC)cc2)CCCN3CC(C)C)cc1 [CVC, (S)-8-[4-(2-Butoxyethoxy)phenyl]-1-isobutyl-N-(4-{[(1-propyl-1H-imidazol-5-yl)methyl]sulfinyl}phenyl)-1,2,3,4-tetrahydro-1-benzazocine-5-carboxamide]
- concentration required to reach >80% receptor occupancy (CCR2; CCR2, average): 1.8 nM
- prevention of MCP-1-induced CCR2 internalization (CCR2; PBMCs): at lower concentrations than BMS-22
- CCR2 cell-surface expression (CCR2; in the absence of MCP-1, monocytes): decreased cell-surface expression on monocytes
- subjects with ALT and/or AST elevations (Grade 1) ([1]; 25 mg): 2 subjects
- subjects with ALT and/or AST elevations (Grade 1) ([1]; 50 mg): 2 subjects
- subjects with ALT and/or AST elevations (Grade 1) ([1]; 100 mg): 1 subject
- subjects with ALT and/or AST elevations (Grade 1) ([1]; 150 mg): 1 subject
- tolerability ([1]; 25 to 150 mg once daily, 10 days): generally well tolerated at the doses studied
- RANTES-induced Ca2+ mobilization [2]: blocked
- Deaths [3, 4]: 0 n
- SAE: Suicidal ideation [3, 4]: 0 n
- Grade 3 or 4 AE: Suicidal ideation ([3]; All CVC (N = 115), EFV (N = 28; Grade 4 event)): 0 n
- Deaths ([3]; CVC 100 mg (N = 58)): 0 n
- Grade 3 or 4 AE: Suicidal ideation ([3]; CVC 100 mg (N = 58)): 0 n
- SAE: Suicidal ideation ([3]; CVC 100 mg (N = 58)): 0 n
- Deaths ([3]; CVC 200 mg (N = 57)): 0 n
- Grade 3 or 4 AE: Suicidal ideation ([3]; CVC 200 mg (N = 57)): 0 n
- SAE: Suicidal ideation ([3]; CVC 200 mg (N = 57)): 0 n
- AE leading to discontinuation: Abnormal dreams ([3]; human, in vivo, 48 week): 0 n
- AE leading to discontinuation: Aggression ([3]; human, in vivo, 48 week): 1 n
- AE leading to discontinuation: Anxiety ([3]; human, in vivo, 48 week): 0 n
- AE leading to discontinuation: Depression ([3]; human, in vivo, 48 week): 1 n
- AE leading to discontinuation: Dermatitis allergic ([3]; human, in vivo, 48 week): 0 n
- AE leading to discontinuation: Ear and labyrinth disorders ([3]; human, in vivo, 48 week): 0 n
- AE leading to discontinuation: Insomnia ([3]; human, in vivo, 48 week): 0 n
- AE leading to discontinuation: Psychiatric disorders ([3]; human, in vivo, 48 week): 1 n
- AE leading to discontinuation: Rash ([3]; human, in vivo, 48 week): 0 n
- AE leading to discontinuation: Skin and subcutaneous tissue disorders ([3]; human, in vivo, 48 week): 0 n
- AE leading to discontinuation: Tachyphrenia ([3]; human, in vivo, 48 week): 0 n
- AE leading to discontinuation: Thinking abnormal ([3]; human, in vivo, 48 week): 1 n
- AE leading to discontinuation: Tinnitus ([3]; human, in vivo, 48 week): 0 n
- Any AE, % ([3]; human, in vivo, 48 week): (86%)
- Depression, % ([3]; human, in vivo, 48 week): (3%)
- Diarrhoea, % ([3]; human, in vivo, 48 week): (15%)
- Fatigue, % ([3]; human, in vivo, 48 week): (12%)
- Headache, % ([3]; human, in vivo, 48 week): (14%)
- Nausea, % ([3]; human, in vivo, 48 week): (16%)
- Rash, % ([3]; human, in vivo, 48 week): (12%)
- Subjects with AEs leading to discontinuation of study medication ([3]; human, in vivo, 48 week): 1 n
- Subjects with AEs related to study medication ([3]; human, in vivo, 48 week): 54 n
- Subjects with AEs, by worst grade severity: Grade 1 ([3]; human, in vivo, 48 week): 50 n
- Subjects with AEs, by worst grade severity: Grade 2 ([3]; human, in vivo, 48 week): 44 n
- Subjects with AEs, by worst grade severity: Grade 3 ([3]; human, in vivo, 48 week): 5 n
- Subjects with AEs, by worst grade severity: Grade 4 ([3]; human, in vivo, 48 week): 0 n
- Syphilis, % ([3]; human, in vivo, 48 week): (1%)
- Upper respiratory tract infection, % ([3]; human, in vivo, 48 week): (16%)
- AE leading to discontinuation: Disturbance in attention ([3]; human, in vivo, 48 weeks): 0 n
- AE leading to discontinuation: Dizziness ([3]; human, in vivo, 48 weeks): 0 n
- AE leading to discontinuation: Eye disorders ([3]; human, in vivo, 48 weeks): 0 n
- AE leading to discontinuation: Gastrointestinal disorders ([3]; human, in vivo, 48 weeks): 0 n
- AE leading to discontinuation: General disorders and administration site conditions ([3]; human, in vivo, 48 weeks): 1 n
- AE leading to discontinuation: Hypoaesthesia ([3]; human, in vivo, 48 weeks): 0 n
- AE leading to discontinuation: Malaise ([3]; human, in vivo, 48 weeks): 1 n
- AE leading to discontinuation: Musculoskeletal and connective tissue disorders ([3]; human, in vivo, 48 weeks): 0 n
- AE leading to discontinuation: Musculoskeletal discomfort ([3]; human, in vivo, 48 weeks): 0 n
- AE leading to discontinuation: Nausea ([3]; human, in vivo, 48 weeks): 0 n
- AE leading to discontinuation: Nervous system disorders ([3]; human, in vivo, 48 weeks): 0 n
- AE leading to discontinuation: Photophobia ([3]; human, in vivo, 48 weeks): 0 n
- Abnormal dreams, % ([3]; human, in vivo, 48 weeks): (8%)
- Any AE leading to discontinuation of study drug ([3]; human, in vivo, 48 weeks): 1 n
- Any Grade 3 AE ([3]; human, in vivo, 48 weeks): 5 n
- Any Grade 4 AE ([3]; human, in vivo, 48 weeks): 0 n
- Any SAE ([3]; human, in vivo, 48 weeks): 2 n
- Dizziness, % ([3]; human, in vivo, 48 weeks): (10%)
- Grade 3 or 4 AE: Abdominal pain ([3]; human, in vivo, 48 weeks): 1 n
- Grade 3 or 4 AE: Blindness unilateral ([3]; human, in vivo, 48 weeks): 1 n
- Grade 3 or 4 AE: Blood creatine phosphokinase increased ([3]; human, in vivo, 48 weeks): 1 n
- Grade 3 or 4 AE: Cardiac disorders ([3]; human, in vivo, 48 weeks): 1 n
- Grade 3 or 4 AE: Corneal infection ([3]; human, in vivo, 48 weeks): 1 n
- Grade 3 or 4 AE: Depression ([3]; human, in vivo, 48 weeks): 0 n
- Grade 3 or 4 AE: Dermatitis allergic ([3]; human, in vivo, 48 weeks): 0 n
- Grade 3 or 4 AE: Ear and labyrinth disorders ([3]; human, in vivo, 48 weeks): 0 n
- Grade 3 or 4 AE: Eye disorders ([3]; human, in vivo, 48 weeks): 1 n
- Grade 3 or 4 AE: Gastrointestinal disorders ([3]; human, in vivo, 48 weeks): 1 n
- Grade 3 or 4 AE: General disorders and administration site conditions ([3]; human, in vivo, 48 weeks): 1 n
- Grade 3 or 4 AE: Infections and infestations ([3]; human, in vivo, 48 weeks): 1 n
- Grade 3 or 4 AE: Investigations ([3]; human, in vivo, 48 weeks): 1 n
- Grade 3 or 4 AE: Palpitations ([3]; human, in vivo, 48 weeks): 1 n
- Grade 3 or 4 AE: Psychiatric disorders ([3]; human, in vivo, 48 weeks): 1 n
- Grade 3 or 4 AE: Pyrexia ([3]; human, in vivo, 48 weeks): 1 n
- Grade 3 or 4 AE: Skin and subcutaneous tissue disorders ([3]; human, in vivo, 48 weeks): 0 n
- Grade 3 or 4 AE: Stress ([3]; human, in vivo, 48 weeks): 1 n
- Grade 3 or 4 AE: Tinnitus ([3]; human, in vivo, 48 weeks): 0 n
- Grade 3 or 4 AE: Weight decreased ([3]; human, in vivo, 48 weeks): 0 n
- Insomnia, % ([3]; human, in vivo, 48 weeks): (6)
- Lymphadenopathy, % ([3]; human, in vivo, 48 weeks): (6%)
- Nasopharyngitis, % ([3]; human, in vivo, 48 weeks): (9%)
- SAE: Blindness unilateral ([3]; human, in vivo, 48 weeks): 1 n
- SAE: Corneal infection ([3]; human, in vivo, 48 weeks): 1 n
- SAE: Depression ([3]; human, in vivo, 48 weeks): 0 n
- SAE: Eye disorders ([3]; human, in vivo, 48 weeks): 1 n
- SAE: Gastroenteritis ([3]; human, in vivo, 48 weeks): 1 n
- SAE: Infections and infestations ([3]; human, in vivo, 48 weeks): 2 n
- SAE: Psychiatric disorders ([3]; human, in vivo, 48 weeks): 0 n
- Subjects with serious AEs ([3]; human, in vivo, 48 weeks): 2 n
- Subjects with ≥1 AE ([3]; human, in vivo, 48 weeks): 99 n
